Results on 6 compounds are retold here after US20110082119A1, “PROPHYLACTIC/AMELIORATING OR THERAPEUTIC AGENT FOR NON-ALCOHOLIC STEATOHEPATITIS” (priority 2008, published 2011).

Data set [1] concerns SD rat fed with high-fat high-sucrose diet. As to the kind of experiment: Effectiveness in high fat diet-fed rat. Type of data set: in vivo. As to conditions: HF diet 4 weeks. As to the method:
4 week old male SD rat is allowed to freely take normal diet (F-1, Funabashi Farm) or high-fat high-sucrose diet (TD88137, Harlan Teklad, hereinafter referred to as “HF diet”) for 4 weeks under 12 hour light-dark cycles at 23° C. […] The administration is conducted orally once a day. The normal group and the control group are orally administered with 5% aqueous solution of gum arabic once a day. After 4 weeks, blood is collected for determining neutrophil count and conduct biochemical tests of the plasma.

The subject of data set [2] is rats fed with methionine-choline-deficient diet (NASH-like lesion in the liver). In kind it is in vivo. Particulars: MCD diet 20 weeks, compared to the control group; for plasma AST / plasma ALT: oral once a day; for plasma AST: EPA-E 1000 mg/kg, acetylsalicylic acid 20 mg/kg; for plasma ALT: EPA-E 1000, metformin hydrochloride 40, acetylsalicylic acid 20, simvastatin 5, valsartan 20 mg/kg. As to the method: Pharmacological action of EPA-E and/or metformin hydrochloride, acetylsalicylic acid, simvastatin, or valsartan on liver disorder and fibrosis is confirmed by using rats that have been fed with methionine-choline-deficient diet (hereinafter referred to as “MCD diet”) known to develop a NASH-like lesion in the liver.
7 week old male Wister rats are allowed to freely take normal diet (F-1, Funabashi Farm) or MCD diet (Dyets, Inc.) for 20 weeks under 12 hour light-dark cycles at 23° C. […] The administration is conducted orally once a day. The normal group and the control group are orally administered with 5% aqueous solution of gum arabic once a day. After 20 weeks, blood is collected for biochemical tests of the plasma, and pathological tests of the liver are also conducted.

The subject of data set [3] is db/db mouse fed with MCD diet (NASH-like lesion in the liver). As to the kind of experiment: Effectiveness in methionine-choline deficient diet diabetes model mouse. Type of data set: in vivo. Particulars: MCD diet 2 weeks, compared to the control group; for plasma ALT / plasma FFA amount: oral once a day, EPA-E 1000 mg/kg, metformin hydrochloride 80 mg/kg. As to the method: Pharmacological action of EPA-E and/or metformin hydrochloride or olmesartan medoxomil for liver disorder and fibrosis is confirmed by using diabetes model rats that have been fed with MCD diet known to induce a NASH-like lesion in the liver.
7 week old male db/db mouse (Charles River Japan) is allowed to freely take normal diet (F-1, Funabashi Farm) or MCD diet (Dyets, Inc.) for 2 weeks under 12 hour light-dark cycles at 23° C. […] The administration is conducted orally once a day. The normal group and the control group are orally administered with 5% aqueous solution of gum arabic once a day. After 2 weeks, HOMA-IR is measured and blood is collected for biochemical test of the plasma.

The subject of a further data set is NASH patient. Particulars: cited from earlier work.
Another data set concerns NASH patients. The data set is described as follows: Administration to patients with the definitive diagnosis of NASH for one year. In kind it is in vivo, human. The method, then: Patients with the definitive diagnosis of NASH are divided into 8 groups (each group consisting of 15 patients). EPA-E group is administered with Epadel S (Registered Trademark) 900 (containing 900 mg of EPA-E) twice a day. […] Administration of the Melbin (Registered Trademark) tablet is started from once a day, the dose is adequately adjusted depending on the conditions of the patient, and after 5 weeks from the start of the administration, the dose may be increased to twice a day, and after 9 weeks from the start of the administration, the dose may be increased to 3 times a day. The dose is adequately adjusted depending on the conditions of the patient. […] Administration of the Bayaspirin (Registered Trademark) tablet is started from twice a day at 10 tablet in total, and after 5 weeks from the start of the administration, the dose is reduced to once a day at 1 tablet in total. The dose is adequately adjusted depending on the conditions of the patient. […] Candesartan group is administered with Blopress (Registered Trademark) tablet 2 (containing 2 mg of candesartan cilexetil), and candesartan combination group is administered with Blopress (Registered Trademark) tablet 2 and Epadel S (Registered Trademark) 900 twice a day. Administration of the Mevalotin (Registered Trademark) tablet 5 and Blopress (Registered Trademark) tablet 2 is started from 1 tablet once a day, and after 5 weeks from the start of the administration, the dose is increased to twice a day at 2 tablets in total, and after 9 weeks from the start of the administration, the dose is further increased to twice a day at 4 tablets in total. The dose is adequately adjusted depending on the conditions of the patient. Criteria, monitoring, histological tests, statistical analysis of the patients are conducted according to the methods described in Am. J. Gastroenterol. 2001; 96: 2711-2717. Measurement of blood neutrophil count and HOMA-IR, blood biochemical tests such as ALT and AST are occasionally conducted during the administration period of one year, and liver biopsy is conducted after completing the administration for histological evaluation.

Where [4] appears, read: NASH patient, oral 1500 mg/day for 4 months, Non-Patent Literature 4.
Setting [5] is: oral once a day, compared to the control group, EPA-E 1000 mg/kg, atorvastatin calcium hydrate 10 mg/kg.
[6] abbreviates: EPA-E 1000 mg/kg oral once a day.
Setting [7] is: administration period of one year, EPA-E group (Epadel S 900 twice a day) compared to the measurements before the treatment.
[8] abbreviates: one year, Epadel S 900 (900 mg EPA-E) twice a day, compared to the measurements before the treatment.
Setting [9] is: NASH patient also suffering from hypertension, oral 50 mg/day for 48 weeks, Non-Patent Literature 9.

Where a name gives a salt, the structure may show the parent alone.

For `CC(=O)Oc1ccccc1C(=O)O` [acetylsalicylic acid], the “improvement of the parameters over the control group” value in data set [1] (acetylsalicylic acid 10 mg/kg oral once a day) was “does not exhibit significant improvement”. The “effects on plasma and liver parameters like those of the EPA-E group” value in data set [2] (acetylsalicylic acid 20 mg/kg oral once a day) is given as “does not exhibit effects like those of the EPA-E group”. Besides, in data set [2], the “plasma AST” value was “exacerbated” and the “plasma ALT” value is recorded as “exacerbated”.
On to `CN(C)C(=N)N=C(N)N` [metformin, metformin hydrochloride], for which the HOMA-IR result in data set [3] (metformin hydrochloride 80 mg/kg oral once a day) is given as “improved”. In addition, in data set [3], the “plasma ALT” value was “suppressed increase” and the “plasma FFA amount” value was “suppressed increase”. The “plasma ALT” value in data set [2] is “suppression of the increase”. For the same compound, in the data set on NASH patient (setting [4]), the lactic acid level result is on record as “significant increase” and the “serum alanine aminotransferase (ALT) level” value is reported as “significant decrease”.
Take `CC/C=C\C/C=C\C/C=C\C/C=C\C/C=C\CCCC(=O)OCC` [EPA-E, ethyl icosapentate]: in data set [1] (setting [5]), the IL-6 entry was “suppressed increase”, the TNFα result is reported as “suppressed increase”, the ferritin result is listed as “suppressed increase” and the “high sensitivity CPR” value is “suppressed increase”. Also, in data set [1] (setting [5]), the neutrophil count result is “suppressed increase”, the “plasma ALT” value is recorded as “suppressed increase”, the “plasma AST” value was “suppressed increase” and the thioredoxin result is “suppressed increase”. Moreover, the “type IV collagen” value in data set [1] (setting [5]) is on record as “suppressed increase”. In addition, in data set [3] (setting [6]), the TNFα result is reported as “suppressed increase”, the “plasma AST” value was “suppressed increase”, the “plasma TIMP-1” value is “suppressed increase” and the plasma adiponectin amount result is listed as “suppressed decrease”. In addition, in data set [3] (setting [6]), the plasma hyaluronic acid result was “suppressed increase” and the “plasma type IV collagen” value is reported as “suppressed increase”. For the same compound, in data set [3], the “plasma ALT” value is on record as “suppressed increase” and the “plasma FFA amount” value is reported as “suppressed increase”. In addition, in data set [2] (setting [6]), the liver hydroxyproline content result is on record as “suppressed increase”, the “plasma TIMP-1 content” value was “suppressed increase”, the plasma albumin entry is “suppressed increase” and the plasma choline esterase entry is on record as “suppressed increase”. For the same compound, in data set [2] (setting [6]), the plasma hyaluronic acid result is “suppressed increase”, the plasma total bilirubin entry is reported as “suppressed increase”, the plasma total protein result was “suppressed increase” and the “plasma type Iv collagen” value is given as “suppressed increase”. Also, in data set [2], the “plasma AST” value is on record as “suppressed increase” and the “plasma ALT” value is listed as “suppressed increase”. Also, the “fibrosis area of liver” value in data set [2] (Masson's trichrome stain, EPA-E 1000 mg/kg oral once a day) is recorded as “suppressed increase”. Besides, in the data set on NASH patients (setting [7]), the AST result is recorded as “decrease”, the HOMA-IR result is on record as “improved”, the IL-6 result is given as “decrease” and the TNFα result is recorded as “decrease”. Also, in the data set on NASH patients (setting [7]), the adiponectin entry was “increases”, the ferritin result is listed as “decrease”, the fibrosis marker result is “decrease” and the “high sensitivity CPR” value is listed as “decrease”. The thioredoxin result with NASH patients (setting [7]) is “decrease”. Moreover, the “pathological test image of the liver tissue, overall rating of fat accumulation grade, inflammation grade and fibrosis stage by Brunt method” value with NASH patients (liver biopsy after one year, EPA-E group compared to the condition before the administration) was “improves”. In the data set with NASH patients (setting [8]), the AZT result is given as “decrease” and the blood neutrophil count entry is given as “decrease”. Besides, the “NASH (AST or ALT enzyme, inflammatory cytokine or oxidative stress marker, liver biopsy)” value in the data set with NASH patient (2700 mg/day of high purity EPA-E for 12 months, Tanaka et al., Non-Patent Literature 3) is reported as “amelioration of NASH was demonstrated”.
With `CCCCC(=O)N(Cc1ccc(-c2ccccc2-c2nnn[nH]2)cc1)[C@H](C(=O)O)C(C)C` [valsartan], the “plasma ALT” value in data set [2] is “suppression of the increase”.
As for `CC(C)c1c(C(=O)Nc2ccccc2)c(-c2ccccc2)c(-c2ccc(F)cc2)n1CC[C@@H](O)C[C@@H](O)CC(=O)O` [atorvastatin, atorvastatin calcium hydrate], in data set [1] (setting [5]), the IL-6 entry is on record as “suppressed increase”, the TNFα result is recorded as “suppressed increase”, the ferritin result was “suppressed increase” and the “high sensitivity CPR” value is given as “suppressed increase”. In addition, in data set [1] (setting [5]), the neutrophil count entry is reported as “suppressed increase”, the thioredoxin result is reported as “suppressed increase” and the “type IV collagen” value was “suppressed increase”.
Turning to `CCCCc1nc(Cl)c(CO)n1Cc1ccc(-c2ccccc2-c2nn[nH]n2)cc1` [losartan], in the data set on NASH patient (setting [9]), the ALT entry is “improvement”, the ferritin entry was “improvement” and the “type IV collagen” value is “improvement”.
